The test system of data set [1] is bicistronic HCV replicon (replicon RNA, GenBank Accession No. AJ242654). Description: HCV Replicon Assay. The data set is classed as cell-based. The note with it: Hepatitis C virus, 72 h, read-out: Replicon IC50.

The text below walks through data of patent publication US8735414B2 (priority 2009, dated 2014).

A word on the IC50: it is the midpoint of a concentration-inhibition curve. For orientation: melting point means the temperature, or range, at which the solid turns liquid. In the case of `Cc1cc2c(cc1F)c(C(=O)O)c(-c1ncc(S(=O)(=O)NC(C)(C)C)cn1)n2C1CCC1` [compound 794, 2-[5-(tert-butylsulfamoyl)pyrimidin-2-yl]-1-cyclobutyl-5-fluoro-6-methyl-1H-indole-3-carboxylic acid], the melting point was 194 to 201 °C. In data set [1], the IC50 was 2000 to 5000 nM.
Taken in the same sequence, the figures for `CNC(=O)c1c(-c2ccc(S(=O)(=O)NC(C)(C)C)cn2)n(C2CCC2)c2cc(C)c(F)cc12` [compound 795, 2-[5-(tert-butylsulfamoyl)pyridin-2-yl]-1-cyclobutyl-5-fluoro-N,6-dimethyl-1H-indole-3-carboxamide] were 215 to 218 °C and below 500 nM.
Consider `Cc1cc2c(cc1O)c(C#N)c(-c1ccc(S(=O)(=O)N[C@@H](C)C(F)(F)F)cn1)n2C1CCC1` [compound 796, 6-(3-cyano-1-cyclobutyl-5-hydroxy-6-methyl-1H-indol-2-yl)-N-[(2S)-1,1,1-trifluoropropan-2-yl]pyridine-3-sulfonamide], for which the melting point lay in the range of 193 to 195 °C. Also, in data set [1], the IC50 was below 500 nM.
In the same order, the values of `C[C@H](NS(=O)(=O)c1ccc(-c2c(C#N)c3c(F)cc(OC(F)F)cc3n2C2CCC2)nc1)C(F)(F)F` [compound 797, 6-[3-cyano-1-cyclobutyl-6-(difluoromethoxy)-4-fluoro-1H-indol-2-yl]-N-[(2S)-1,1,1-trifluoropropan-2-yl]pyridine-3-sulfonamide] are 210 to 212 °C and below 500 nM.
In the same order, the values of `NC(=O)c1c(-c2ccc(S(=O)(=O)Nc3ccccc3)cn2)n(C2CCC2)c2cc(OC(F)F)c(F)cc12` [compound 798, 1-cyclobutyl-6-(difluoromethoxy)-5-fluoro-2-[5-(phenylsulfamoyl)pyridin-2-yl]-1H-indole-3-carboxamide] are 204 to 206 °C and 500 to 2000 nM.
In the same order, the values of `CNC(=O)c1c(-c2ccc(S(=O)(=O)NC(C)(C)C)cn2)n(C2CCCC2)c2cc(C)c(F)cc12` [compound 799, 2-[5-(tert-butylsulfamoyl)pyridin-2-yl]-1-cyclopentyl-5-fluoro-N,6-dimethyl-1H-indole-3-carboxamide] are 248 to 250 °C and below 500 nM.
In turn, `Cc1cc2c(cc1F)c(C(N)=O)c(-c1ccc(S(=O)(=O)NC(C)(C)C)cn1)n2C1CCC1` [compound 800, 2-[5-(tert-butylsulfamoyl)pyridin-2-yl]-1-cyclobutyl-5-fluoro-6-methyl-1H-indole-3-carboxamide] registered a melting point of 189 to 193 °C. Further, the IC50 in data set [1] was below 500 nM.
Taken in the same sequence, the figures for `CNC(=O)c1c(-c2ncc(S(=O)(=O)NC(C)(C)C)cn2)n(C2CCC2)c2cc(C)c(F)cc12` [compound 802, 2-[5-(tert-butylsulfamoyl)pyrimidin-2-yl]-1-cyclobutyl-5-fluoro-N,6-dimethyl-1H-indole-3-carboxamide] were 211 to 213 °C and below 500 nM.
Taken in the same sequence, the figures for `Cc1cc2c(cc1Cl)c(C#N)c(-c1ccc(S(=O)(=O)N[C@@H](C)C(F)(F)F)cn1)n2-c1ccccn1` [compound 803, 6-[5-chloro-3-cyano-6-methyl-1-(pyridin-2-yl)-1H-indol-2-yl]-N-[(2S)-1,1,1-trifluoropropan-2-yl]pyridine-3-sulfonamide] were 210 to 212 °C and below 500 nM.
Take `Cc1cc2c(cc1Cl)c(C#N)c(-c1ccc(S(=O)(=O)N[C@@H](C)C(F)(F)F)cn1)n2-c1ccc(F)cn1` [compound 804, 6-[5-chloro-3-cyano-1-(5-fluoropyridin-2-yl)-6-methyl-1H-indol-2-yl]-N-[(2S)-1,1,1-trifluoropropan-2-yl]pyridine-3-sulfonamide]: the melting point was 210 to 212 °C. In addition, the IC50 in data set [1] is below 500 nM.
In the case of `Cc1cc2c(cc1O)c(C#N)c(-c1ccc(S(=O)(=O)NC(C)(C)C)cn1)n2C1CCC1` [compound 805, N-tert-butyl-6-(3-cyano-1-cyclobutyl-5-hydroxy-6-methyl-1H-indol-2-yl)pyridine-3-sulfonamide], the melting point was in the range of 211 to 213 °C. Further, the IC50 in data set [1] lay within 500 to 2000 nM.
Taken in the same sequence, the figures for `C[C@H](NS(=O)(=O)c1ccc(-c2c(C(N)=O)c3cc(F)c(OC(F)F)cc3n2C2CCCC2)nc1)C(F)(F)F` [compound 806, 1-cyclopentyl-6-(difluoromethoxy)-5-fluoro-2-(5-{[(2S)-1,1,1-trifluoropropan-2-yl]sulfamoyl}pyridin-2-yl)-1H-indole-3-carboxamide] were 220 to 222 °C and below 500 nM.
In the same order, the values of `Cc1cc2c(cc1O)c(C#N)c(-c1ccc(S(=O)(=O)N[C@H](C)C(F)(F)F)cn1)n2C1CCC1` [compound 807, 6-(3-cyano-1-cyclobutyl-5-hydroxy-6-methyl-1H-indol-2-yl)-N-[(2R)-1,1,1-trifluoropropan-2-yl]pyridine-3-sulfonamide] are 209 to 210 °C and below 500 nM.
Taken in the same sequence, the figures for `N#Cc1c(-c2ccc(S(=O)(=O)NC3(C(F)(F)F)CC3)cn2)n(C2CCC2)c2cc(OC(F)F)c(F)cc12` [compound 808, 6-[3-cyano-1-cyclobutyl-6-(difluoromethoxy)-5-fluoro-1H-indol-2-yl]-N-[1-(trifluoromethyl)cyclopropyl]pyridine-3-sulfonamide] were 169 to 171 °C and below 500 nM.
As for `NC(=O)c1c(-c2ccc(S(=O)(=O)NC3(C(F)(F)F)CC3)cn2)n(C2CCC2)c2cc(OC(F)F)c(F)cc12` [compound 809, 1-cyclobutyl-6-(difluoromethoxy)-5-fluoro-2-(5-{[1-(trifluoromethyl)cyclopropyl]sulfamoyl}pyridin-2-yl)-1H-indole-3-carboxamide], the melting point lay within 197 to 200 °C. Besides, the IC50 in data set [1] was below 500 nM.
In the same order, the values of `Cc1c(OC(F)F)c(F)cc2c(C#N)c(-c3ccc(S(=O)(=O)N[C@@H](C)C(F)(F)F)cn3)n(C3CCC3)c12` [compound 811, 6-[3-cyano-1-cyclobutyl-6-(difluoromethoxy)-5-fluoro-7-methyl-1H-indol-2-yl]-N-[(2S)-1,1,1-trifluoropropan-2-yl]pyridine-3-sulfonamide] are 168 to 174 °C and below 500 nM.
Taken in the same sequence, the figures for `N#Cc1c(-c2ccc(S(N)(=O)=O)cn2)n(CC2CC2)c2cc(OC(F)F)c(F)cc12` [compound 812, 6-[3-cyano-1-(cyclopropylmethyl)-6-(difluoromethoxy)-5-fluoro-1H-indol-2-yl]pyridine-3-sulfonamide] were 173 to 178 °C and 2000 to 5000 nM.
Compound `Cc1cc2c(cc1F)c(C#N)c(-c1ccc(S(=O)(=O)N[C@@H](C)C(F)(F)F)cn1)n2-c1cccc(F)n1` [compound 815, 6-[3-cyano-5-fluoro-1-(6-fluoropyridin-2-yl)-6-methyl-1H-indol-2-yl]-N-[(2S)-1,1,1-trifluoropropan-2-yl]pyridine-3-sulfonamide] returned a melting point of 210 to 212 °C. Moreover, the IC50 in data set [1] is below 500 nM.
In the same order, the values of `Cc1cc2c(cc1F)c(C#N)c(-c1ccc(S(=O)(=O)N[C@@H](C)C(F)(F)F)cn1)n2-c1cnccn1` [compound 817, 6-[3-cyano-5-fluoro-6-methyl-1-(pyrazin-2-yl)-1H-indol-2-yl]-N-[(2S)-1,1,1-trifluoropropan-2-yl]pyridine-3-sulfonamide] are 220 to 223 °C and below 500 nM.
